Data published in US8623408B2, “Cladribine formulations for improved oral and transmucosal delivery” (Ares Trading S.A., priority 2003, dated 2014).
Values joined by “and” are separate entries in the source; they are usually repeats but may differ in a detail not shown here. Equal values may be shown once. Read-outs that look alike come from different tables or passages of the source.

Assay: Bioavailability and pharmacokinetic studies in beagle dog model
Assay type: in vivo
Design: AUC/Dose: unit not given here
Details: dogs; for AUC/Dose: dose in mg/kg; for concentration at 5 min: 5 mg/animal, read-out: Cfirst (first measured concentration at 5 minutes)
Description: The bioavailability of cladribine when complexed with γCD or HPβCD was evaluated in a beagle dog model.
Bioavailability and pharmacokinetic studies were conducted in a beagle dog model as follows.
Outbred male beagle dogs (identified as PM01-PM06) obtained from IDRI (Dunakeszi, Hungary) were allowed laboratory diet and water ad libitum. The same dogs were used throughout the study to minimize inter- and intrasubject variability. The bioavailability and pharmacokinetic studies were conducted as follows.
In the first test period, 5 mg cladribine (0.25 mg/ml in isotonic saline) was administered intravenously to test subjects. Blood samples were collected at various time intervals over 48 hours. In the second test period, half of the subjects received buccally a tablet as described above containing a saturated cladribine-γCD or -HPβCD complex. Serial blood samples were collected over 48 hours. The third test period repeated the second test period with the exception that the subjects previously receiving the γ-cyclodextrin buccal tablet were now given hydroxypropyl-β-cyclodextrin buccal tablets, with hydroxypropyl-β-cyclodextrin tablet recipients from the second period receiving γ-cyclodextrin buccal tablets. The fourth and fifth test periods repeated test periods two and three with the exception that the tablets were given orally.
Cladribine levels in the blood were measured by HPLC and an LC/MS/MS method. The TopFit 2.0 Pharmacokinetic and Pharmacodynamic Data Analysis System was used for the pharmacokinetic analysis of the data.
The peak areas, calibration curves, accuracy, precision values and the concentrations were determined using Analyst Software 1.1 (PE SCIEX, Foster City, US). For calculation of mean and standard deviation, Excel 5.0 software was used. The calibration curve was fitted using the ratio of concentrations of analyte and internal standard versus the ratio of the peak areas of them. A straight line was fitted on the experimental points by weighted least squares linear regression analysis. The weighting scheme used was 1/concentration squared as pg/ml plasma.
For calculation of mean, standard deviation and CV %, Excel 5.0 software was used. Lower levels than the limit of quantification were not accepted. Mean and S.D. values were calculated only for the concentrations measured after intravenous administration.
Pharmacokinetic analysis was performed on the basis of individual plasma concentration versus time curves. The mean and S.D. of parameters obtained from individual data were calculated. The linear-trapezoidal rule was used for calculation of the area under the plasma concentration time curve from 0 until the last measured concentration (AUD). Using the terminal regression line the area extrapolated to infinity (AUCt-∞) was calculated in the following way: AUCt-∞=ccalc/λz • where: Ccalc represents the estimated plasma concentration by the regression line at the last sampling time point with measured concentration above the limit of quantification, and λz represents the rate constant calculated from the regression line.
The points determining the regression line, i.e. the terminal phase, were selected by visual determination of the linear segment of the semilogarithmic curve. The total area under the curve (AUC) was calculated by adding together the partial areas: AUC=AUD+AUCt-∞. The AUC values were normalized by the actual dose given in the particular period. For calculation of the bioavailability, the buccal/oral AUC/dose value was divided by the intravenous AUC/dose value.

[1] = intravenous bolus, 5 mg cladribine/animal, Mean of 6 dogs
[2] = intravenous bolus, 5 mg cladribine/animal, individual dogs PM01-PM06

With `Nc1nc(Cl)nc2c1ncn2[C@H]1C[C@H](O)[C@@H](CO)O1` [cladribine, 2-chloro-2′-deoxyadenosine] the AUD [1] was 377 ng·h/mL, the AUDext [1] was 1.4% and the “Cinitial (extrapolated value at the end of the bolus)” value [1] was 563 ng/mL. For the same compound, the MRTtot [1] was 1.3 h, the AUC/Dose [1] was 967 and the AUC/Dose [2] was 918 and 965 and 947 and 949 and 948 and 1077. The AUC [2] was 338 ng·h/mL and 366 ng·h/mL and 432 ng·h/mL and 342 ng·h/mL and 433 ng·h/mL, the AUD [2] was 379 ng · h/ml and 334 ng · h/ml and 359 ng · h/ml and 426 ng · h/ml (2×) and 337 ng · h/ml and the AUDext [2] was 1.4% (3×) and 1.0% and 1.9% and 1.5%. The “Cfirst (first measured concentration at 5 minutes)” value [2] was 306 ng/mL and 478 ng/mL and 560 ng/mL and 446 ng/mL and 605 ng/mL, the “Cinitial (extrapolated value at the end of the bolus)” value [2] was 569 ng/mL and 335 ng/mL and 567 ng/mL and 655 ng/mL and 525 ng/mL and 726 ng/mL and the Cltot [2] was 247 mL/min and 228 mL/min and 193 mL/min and 244 mL/min and 192 mL/min. For the same compound, the Cltot/kg [2] was 17.6 mL/min/kg and 15.4 mL/min/kg, the MRTtot [2] was 1.4 h and 1.5 h and 1.3 h (3×) and 1.2 h and the t½ terminal [2] was 11.3 h and 9.9 h and 10.4 h and 8.5 h and 10.7 h. It also gave a clearance (male, beagle, dog, plasma, iv, 5 mg, after intravenous administration, read-out: mean total clearance) of 17 mL/min/kg, a half-life (male, beagle, dog, plasma, iv, 5 mg, after intravenous administration, read-out: terminal elimination half-life (converted)) of ~10 h and an AUC (male, beagle, dog, plasma, iv, 5 mg, intravenous bolus, 5 mg cladribine/animal, Mean of 6 dogs, read-out: AUC) of 382 ng·h/mL. The clearance (male, beagle, dog, plasma, iv, 5 mg, intravenous bolus, 5 mg cladribine/animal, Mean of 6 dogs, read-out: Cltot) was 220 mL/min, the clearance (male, beagle, dog, plasma, iv, 5 mg, intravenous bolus, 5 mg cladribine/animal, Mean of 6 dogs, read-out: Cltot/kg) was 17.3 mL/min/kg and the half-life (male, beagle, dog, plasma, iv, 5 mg, intravenous bolus, 5 mg cladribine/animal, Mean of 6 dogs, read-out: t½ terminal (converted)) was 10.3 h. The AUC (male, beagle, dog, plasma, iv, 5 mg, intravenous bolus, 5 mg cladribine/animal, individual dogs PM01-PM06, read-out: AUC) was 383 ng·h/mL, the clearance (male, beagle, dog, plasma, iv, 5 mg, intravenous bolus, 5 mg cladribine/animal, individual dogs PM01-PM06, read-out: Cltot) was 217 mL/min and the clearance (male, beagle, dog, plasma, iv, 5 mg, intravenous bolus, 5 mg cladribine/animal, individual dogs PM01-PM06, read-out: Cltot/kg) was 18.1 mL/min/kg. The half-life (male, beagle, dog, plasma, iv, 5 mg, intravenous bolus, 5 mg cladribine/animal, individual dogs PM01-PM06, read-out: t½ terminal (converted)) was 11 h, the concentration at 5 min (male, beagle, dog, plasma, iv, intravenous bolus, 5 mg cladribine/animal, Mean of 6 dogs) was 479 ng/mL and the concentration at 5 min (male, beagle, dog, plasma, iv, intravenous bolus, 5 mg cladribine/animal, individual dogs PM01-PM06) was 477 ng/mL.
